# Data as given in patent publication US20250346563A1, “HISTONE DEACETYLASE 6 INHIBITORS AND METHOD FOR TREATING NEUROPATHIC PAIN” (Taipei Medical University, priority 2019, published 2025).
# Experiments:
# [1] = tested on: rat Taxol-induced neuropathic pain model; assay: Thermal hyperalgesia in rat Taxol-induced neuropathic pain model; details: for thermal hyperalgesia (heat pain threshold) vs vehicle: p<0.05
# Experimental: Gabapentin (100 mg/kg), was administrated via IP injection on Days 14, 21, and 27 (total three doses) by using the same cohort of animals in vehicle control group. Thermal hyperalgesia was assessed prior to Taxol challenge (Day 0; Pre-Taxol) and compound administration (Day 13; Pre-dose) and at 1.5 hours after (second) compound administration on Days 14, 17, 21, 24, and 27 (Post-dose). All values represented mean±SEM in individual groups. One-way ANOVA followed by Dunnett's test was applied for comparison between vehicle control and test article groups. p<0.05 is considered significant.
# Animal. Male Sprague-Dawley (SD) rats weighing 220-260 g (at arrival) were provided by BioLasco Taiwan (under Charles River Laboratories Technology Licensee).
# Chemotherapy induced neuropathy. Male SD rats weighing 240±20 grams was employed. Taxol (2 mg/kg) was injected IP on Days 1, 3, 5 and 7 with a total cumulative dose of 8 mg/kg (qod×4). During the course of the study, the animals were housed socially under constant temperature, humidity and a 12-hour light-dark cycle.
# The reference compound, gabapentin (100 mg/kg, IP), was administrated on Days 14, 21, and 27 (total three doses) by using the same cohort of animals in vehicle control group.
# The animals were tested prior to study inclusion for thermal hyperalgesia on Day 13. Thermal hyperalgesia was measured at 1.5 hour after dosing of vehicle or test article on Days 14, 17, 21, 24 and 27 by using the IITC Plantar Test Apparatus (IITC Model-336G; IITC Inc., USA). […] A light beam under the floor was aimed at the plantar surface of the left hind paw. The time was measured automatically when the paw is withdrawn away from the thermal stimulus. A cut-off latency of 23 sec was imposed. The latency to withdrawal was obtained for each rat and defined as the heat pain threshold.
# All values represented mean±SEM in individual groups. One-way ANOVA followed by Dunnett's test was applied for comparison between vehicle control and test article groups. p<0.05 is considered significant.
# [2] = tested on: scopolamine-treated rats; assay: Elevated plus maze test, scopolamine-treated rats; type: in vivo; details: by gavage twice daily for seven days; scopolamine 1.5 mg/kg ip
# Experimental: (§1) Compound 12, Compound 28, suberanilohydroxamic acid (50 mg/kg) or vehicle was given to rats by gavage twice daily for seven days prior to behavioral experiments. On the day conducting a behavior assessment, rats in all groups except the control group were administered scopolamine (1.5 mg/kg) by intraperitoneal injection for 30 minutes before the assessment, then a water maze test or an elevated plus maze test was performed.
# [3] = tested on: scopolamine-treated rats; assay: Water maze test, scopolamine-treated rats; type: in vivo; details: by gavage twice daily for seven days; scopolamine 1.5 mg/kg ip
# Experimental: as §1
# [4] = tested on: multiple myeloma cells (RPMI8226, U266, NCI-H929); assay: Apoptosis in multiple myeloma cells, combined with bortezomib (FACScan, propidium iodide); type: cell-based, human; details: RPMI8226, U266, and NCI-H929, 24 hours
# Experimental: A study was conducted to evaluate the effect of a compound of Formula (I) combined with bortezomib in inducing apoptosis in multiple myeloma cells.
# To detect cell cycle progression, cells were incubated with or without the indicated agent for 24 hours, washed twice with ice-cold PBS, collected by centrifugation, and fixed in 70% (v/v) ethanol for 2 hours at −20° C. They were subsequently incubated for 30 minutes at room temperature with 0.2 mL of deoxyribonucleic acid (DNA) extraction buffer (0.2 M Na2HPO4 and 0.1 M citric acid buffer, pH 7.8), re-suspended in 1 mL of propidium iodide staining buffer (0.1% Triton X-100, 100 μg/mL of RNase A, and 80 μg/mL of propidium iodide in PBS), incubated at 37° C. for 30 minutes in darkness, sorted by FACScan, and analyzed using CellQuest software (BD Biosciences).
# The study was performed according to the protocol reported in Hsieh et al., Cell Death and Disease, 2014 April; 5:e1166.
# [5] = tested on: IL-6 expression; assay: LPS-induced IL-6 expression in RAW 264.7 cells (ELISA); type: cell-based, mouse; details: 10 μM, LPS 24 hr
# Experimental: FIG. 1. Effects of Compound 28 on LPS-induced IL-6 protein expression. The cells were induced with 1 µg/mL LPS and various concentrations of Compound 28 for 24 hr. The levels of IL-6 were determined by ELISA kit.
# In this example, we tested that whether Compound 28 can attenuate LPS-induced inflammation.
# Cells. The RAW 264.7 cell line derived from mouse macrophage were maintained in Dulbecco's modified Eagle's medium (DMEM; GIBCO, Carlsbad, CA, USA) supplemented with 10% heat-inactivated fetal bovine serum (FBS), 100 μg/mL streptomycin, and 100 IU/mL penicillin.
# Measurement of IL-6 expression. RAW cells were cultured onto 6 wells plate. After reaching 80% confluence, cells were pretreated with Compound 28 in 1% FBS medium for 30 min and then incubated with LPS for 24 hr. The levels of IL-6 were determined by IL-6 ELISA kit (BD Bioscience, San Jose, CA, USA). Briefly, 50 μL conditioned medium and 50 μL Assay Diluent were added to each well for 2 hours at room temperature. After washed five times, 100 μL Working Detector was added and incubated for 1 hour. After repetitive washing, 100 μL TMB-Substrate Solution was added for 30 minutes. Finally, 50 μL Stop Solution was added and the optical density was determined using microplate reader set at 450 nm.
smiles,measurement,setting,value
"NCC1(CC(=O)O)CCCCC1 [Gabapentin, reference compound]",thermal hyperalgesia (heat pain threshold),"[1]; 100 mg/kg IP on Days 14, 21, and 27, during the experimental period",attenuated the thermal pain
"O=C(NO)c1ccc(CNc2cccc3ncccc23)cc1 [Compound 12, N-hydroxy-4-((quinolin-5-ylamino)methyl)benzamide]",transfer latency time (elevated plus maze test),[2],significantly rescued scopolamine-mediated increase of transfer latency time
same,time spent in the correct quadrant (water maze test),[3],markedly reverse this effect
"O=C(NO)c1ccc(CNc2cccc3cccnc23)cc1 [Compound 28, N-hydroxy-4-((quinolin-8-ylamino)methyl)benzamide]",transfer latency time (elevated plus maze test),[2],significantly rescued scopolamine-mediated increase of transfer latency time
same,time spent in the correct quadrant (water maze test),[3],markedly reverse this effect
same,thermal hyperalgesia (heat pain threshold) vs vehicle,"[1]; 50 mg/kg PO bid x14, Days 21 and 24",markedly reduced the thermal pain
same,thermal hyperalgesia (heat pain threshold) vs vehicle,"[1]; 50 mg/kg PO qd x14, Days 14 and 17",significant analgesic effects
same,thermal hyperalgesia (heat pain threshold) vs vehicle,"[1]; 50 mg/kg PO qd x14, Days 21 and 24",markedly reduced the thermal pain
same,apoptosis induction,[4],synergistically induced apoptosis
same,LPS-induced IL-6 expression,[5],significantly reduce LPS-induced IL-6 expression
"O=C(CCCCCCNC(=O)c1cnc(N(c2ccccc2)c2ccccc2Cl)nc1)NO [ACY241, Citarinostat, reference compound]",thermal hyperalgesia (heat pain threshold) vs vehicle,"[1]; 50 mg/kg PO qd x14, Days 14, 17, 21, and 24",successfully relieved the thermal hyperalgesia
